The numbers were not newly measured in publication PMC12042267, “Expanding the Family of Monosubstituted 15-Membered Pyridine-Based Macrocyclic Ligands for Mn(II) Complexation in the Context of MRI” (Inorganic Chemistry, 2025), which cites them from elsewhere.

The conditions of series [1]: cited from earlier work.
For series [2] the following is noted: Ca(II), cited from earlier work.
The conditions of series [3]: cited from earlier work; for log KML / log KML(OH) / log KHML: Mn(II).
The conditions of series [4]: Zn(II), cited from earlier work.
The conditions of series [5]: Cu(II), cited from earlier work.
The conditions of series [6]: Mn(II) complex, cited from earlier work; for dissociation half-life t1/2: calculated for pH 7.4.
For series [7] the following is noted: Mn(II) complex, cited from earlier work; for dissociation half-life t1/2: calculated for pH 7.4. This is another data set of the same source.
For series [8] the following is noted: 298 K and 0.47 T ref 21; cited from earlier work.
For series [9] the following is noted: cited from earlier work. This is another data set of the same source.
For series [10] the following is noted: 0.15 NaCl and 2 mM concentration ref 21, 58; cited from earlier work.

Read-outs that look alike come from different tables or passages of the source.

`O=C(O)CN1CCOCCN(CC(=O)O)Cc2cccc(n2)C1` [3,9-OPC2A]: in series [1] (I = 0.15 M NaCl, 25 °C ref 26), the “log K1^H” value is reported as 7.73, the “log K2^H” value is reported as 7.66 and the “log K3^H” value was 2.13. In addition, the “log KML” value in series [2] (I = 0.15 M NaCl, 25 °C ref 26) was 8.27. Moreover, in [3] (I = 0.15 M NaCl, 25 °C ref 26), the “log KML” value was 13.03 and the “log KML(OH)” value is -11.49. Moreover, the pMn in series [3] (pH 7.4, cMn = clig = 10^–5 M ref 26) is listed as 8.69. In addition, in series [4] (I = 0.15 M NaCl, 25 °C ref 26), the “log KHML” value is recorded as 2.08, the “log KML” value is recorded as 14.81 and the “log KML(OH)” value is given as -10.95. In [5] (I = 0.15 M NaCl, 25 °C ref 26), the “log KHML” value is listed as 1.92, the “log KML” value is recorded as 18.41 and the “log KML(OH)” value is -10.50. Besides, in [6] (Cu(II) transmetalation ref 26), the k0 entry was “(8.6 ± 1.1) × 10^–6 s^–1” and the k1 is 2.81 ± 0.07 M^–1 s^–1. Besides, in [6] (Cu(II) ref 26), the “dissociation half-life t1/2” value is 21.9 h.
With `O=C(O)CN1CCNCCN(CC(=O)O)Cc2cccc(n2)C1` [3,9-PC2A], in series [1] (0.1 M KCl ref 42), the “log K1^H” value is given as 12.50, the “log K2^H” value was 5.75, the “log K3^H” value was 3.28 and the “log K4^H” value is given as 2.38. Further, in [1] (I = 0.15 M NaCl, 25 °C ref 21), the “log K1^H” value is given as 12.25, the “log K2^H” value was 5.97, the “log K3^H” value is 3.47 and the “log K4^H” value is recorded as 1.99. Also, in [2] (I = 0.15 M NaCl, 25 °C ref 21), the “log KHML” value is 5.08 and the “log KML” value was 9.92. In addition, the “log KML” value in [3] (I = 0.15 M NaCl, 25 °C ref 21) is on record as 17.09. Besides, in series [3] (I = 0.15 M NaCl, 25 °C, log KMnHL in Table 5 ref 21), the “log KHML” value was 2.14. Further, the pMn in [3] (pH 7.4, cMn = clig = 10^–5 M ref 21) is recorded as 8.64. Further, in [4] (I = 0.15 M NaCl, 25 °C ref 21), the “log KHML” value is 2.74 and the “log KML” value is on record as 19.49. Further, in [5] (I = 0.15 M NaCl, 25 °C ref 21), the “log KHML” value was 2.12 and the “log KML” value was 23.58. Further, in [6] (Cu(II) transmetalation ref 21), the k1 is listed as 221 ± 5 M^–1 s^–1 and the k3 result is on record as “(3.6 ± 0.7) × 10^–2 M^–1 s^–1”. Further, the “dissociation half-life t1/2” value in series [6] (Cu(II) ref 21) is recorded as 21.0 h.
As to `c1cc2nc(c1)CNCCNCCNCCNC2` [15-pyN5], the “log K1^H” value was 9.40 in [1] (0.1 M NMe4Cl ref 28), 9.43 in [1] (0.1 NaClO4 ref 40) and 9.11 in [1] (0.1 NaClO4 ref 41). Further, the “log K2^H” value in series [1] (0.1 M NMe4Cl ref 28) was 8.54; in series [1] (0.1 NaClO4 ref 40), 8.80; in [1] (0.1 NaClO4 ref 41), 8.82. Further, the “log K3^H” value is on record as 5.28 in series [1] (0.1 M NMe4Cl ref 28), 5.28 in [1] (0.1 NaClO4 ref 40) and 5.27 in series [1] (0.1 NaClO4 ref 41). Moreover, the “log KML” value in [2] (0.1 M NMe4Cl ref 28) is listed as 2.97; in series [3] (0.1 M NMe4Cl ref 28) it was 10.89; in series [3] (0.1 M NaClO4 ref 40), 11.64; in [3] (0.1 M NaClO4 ref 41) it was 11.12; in [4] (0.1 M NMe4Cl ref 28), 16.27; in series [5] (0.1 M NMe4Cl ref 28) it was 21.84. The results for the “log KML(OH)” value in [3] (0.1 M NMe4Cl ref 28), in [4] (0.1 M NMe4Cl ref 28) and in [5] (0.1 M NMe4Cl ref 28) were -11.52, -11.18 and -12.30, respectively. For the same compound, the “log KHML” value was 4.27 in [3] (0.1 M NMe4Cl, log KMnHL in Table 5 ref 28); 4.20 in series [3] (0.1 M NaClO4 ref 40); 4.51 in series [3] (0.1 M NaClO4 ref 41); 2.45 in series [4] (0.1 M NMe4Cl ref 28). Besides, the pMn in series [3] (pH 7.4, cMn = clig = 10^–5 M ref 28) is on record as 6.37; in series [3] (pH 7.4, cMn = clig = 10^–5 M ref 40) it was 6.60; in [3] (pH 7.4, cMn = clig = 10^–5 M ref 41), 6.59. Besides, in series [7] (Zn(II) transmetalation ref 28), the k1 is given as 423 M^–1 s^–1. In series [7] (Zn(II) transmetalation ref 28), the k2 was 1.0 × 10^7 M^–2 s^–1. Besides, the k4 in series [7] (Zn(II) transmetalation ref 28) was 1.7 × 10^4 M^–2 s^–1. The “dissociation half-life t1/2” value in series [7] (Zn(II) ref 28) is 11.0 h.
Take `O=C(O)CN1CCOCCOCCNCc2cccc(n2)C1` [L1]: in series [1] (I = 0.15 M NaCl, 25 °C ref 30), the “log K1^H” value is listed as 8.86, the “log K2^H” value is given as 8.03 and the “log K3^H” value is 1.9. In addition, in [2] (I = 0.15 M NaCl, 25 °C ref 30), the “log KHML” value was 6.37 and the “log KML” value is on record as 5.51. The “log KML” value in series [3] (I = 0.15 M NaCl, 25 °C ref 30) is listed as 11.06. In series [3] (I = 0.15 M NaCl, 25 °C, log KMnHL in Table 5 ref 30), the “log KHML” value is 3.82. In series [3] (pH 7.4, cMn = clig = 10^–5 M ref 30), the pMn is listed as 6.95. Besides, in series [4] (I = 0.15 M NaCl, 25 °C ref 30), the “log KHML” value was 2.80 and the “log KML” value is given as 13.12. In addition, in series [5] (I = 0.15 M NaCl, 25 °C ref 30), the “log KHML” value is given as 2.67, the “log KML” value was 15.86 and the “log KML(OH)” value is recorded as -9.7. For the same compound, in series [7] (Zn(II) transmetalation ref 30), the k0 entry is recorded as “(4.1 ± 0.3) × 10^–3 s^–1” and the k1 is on record as 1691 ± 41 M^–1 s^–1. The “dissociation half-life t1/2” value in series [7] (Zn(II) ref 30) was 0.0467 h.
Take `O.O=C([O-])CN1CCNCc2cccc(n2)CN(CC(=O)[O-])CC1.[Mn+2]` [Mn(3,6-PC2A)]: the r1p298 in series [8] was 2.72 mM^–1 s^–1. Moreover, in [9], the “kex^298” value was 14.0 ± 2.5 10^7 s^–1 and the “ΔH^‡” value was 38.2 ± 3.9 kJ mol^–1. In addition, the Eox entry in [10] is listed as “+862 mV”.
In the case of `O.O=C([O-])CN1CCNCCN(CC(=O)[O-])Cc2cccc(n2)C1.[Mn+2]` [Mn(3,9-PC2A)], in [8], the r1p298 is 2.91 mM^–1 s^–1. Also, in [9], the “kex^298” value is 12.6 ± 1.2 10^7 s^–1 and the “ΔH^‡” value is 37.5 ± 2.4 kJ mol^–1. In series [10], the Eox result was “+838 mV”.
As to `O=C(O)CN1CCNCc2cccc(n2)CNCC1` [PC1A], in [1] (0.1 M NMe4Cl ref 20), the “log K1^H” value is recorded as 10.47, the “log K2^H” value is 8.71 and the “log K3^H” value is 2.79. In addition, in [2] (0.1 M NMe4Cl ref 20), the “log KHML” value is recorded as 7.39 and the “log KML” value was 6.04. In series [3] (0.1 M NMe4Cl ref 20), the “log KML” value is reported as 11.54. In [3] (0.1 M NMe4Cl, log KMnHL in Table 5 ref 20), the “log KHML” value is 4.95. Besides, the pMn in series [3] (pH 7.4, cMn = clig = 10^–5 M ref 20) is listed as 8.10. In addition, in [4] (0.1 M NMe4Cl ref 20), the “log KHML” value is recorded as 3.03 and the “log KML” value was 17.01. In [5] (0.1 M NMe4Cl ref 20), the “log KHML” value is 2.09 and the “log KML” value was 18.62. For the same compound, in series [7] (Zn(II) transmetalation ref 20), the k1 was 2020 ± 40 M^–1 s^–1 and the k2 result is “(8.0 ± 0.3) × 10^7 M^–2 s^–1”. For the same compound, the “dissociation half-life t1/2” value in [7] (Zn(II) ref 20) is 2.4 h.
Regarding `O=C(O)CN1CCN(Cc2ccc(-c3ccccc3)cc2)CCN(CC(=O)O)Cc2cccc(n2)C1` [PC2A-BP], in series [1] (I = 0.15 M NaCl, 25 °C ref 23), the “log K1^H” value is given as 10.45, the “log K2^H” value is 6.93, the “log K3^H” value is given as 2.36 and the “log K4^H” value is recorded as 1.64. In addition, the “log KML” value in series [2] (I = 0.15 M NaCl, 25 °C ref 23) is on record as 7.94. The “log KML” value in series [3] (I = 0.15 M NaCl, 25 °C ref 23) is on record as 14.86. The pMn in series [3] (pH 7.4, cMn = clig = 10^–5 M ref 23) is 8.35. Besides, in series [4] (I = 0.15 M NaCl, 25 °C ref 23), the “log KHML” value is reported as 1.71 and the “log KML” value was 18.05. Besides, in [5] (I = 0.15 M NaCl, 25 °C ref 23), the “log KHML” value was 1.04 and the “log KML” value is on record as 22.30. Also, in series [6] (Cu(II) transmetalation ref 23), the k1 is 16.9 ± 0.2 M^–1 s^–1. The “dissociation half-life t1/2” value in [6] (Cu(II) ref 23) was 286.2 h.
As to Mn(EDTA), in series [10], the Eox result was “+769 mV”.
